Reference: US20200355685A1, “REAGENT SET FOR DETECTING INTERACTIONS BETWEEN BIOMOLECULES AND THEIR REGULATORY FACTORS, AND APPLICATIONS” (TSINGHUA UNIVERSITY, priority 2017, published 2020)
No end group written: not given here. Me3 = trimethyl (trimethylated lysine)

Tests used:
[1] = biological target: T1, interaction between P53 and MDM2 (Homo sapiens, UniProt Q00987); test: Intracellular detection of the P53-MDM2 interaction in HEK293 cells co-transfected with GFP-NUPN-P53 and mCherry-MDM2; assay type: cell-based; details: system 8, final concentration of 5 μM, same field before and after treatment
Procedure: Each recombinant vector obtained in step I was transfected (or co-transfected) into HEK293 cells (adherent culture) according to the following combinations, and the transfection reagent Hifectin I (Beijing Dinoao Biotechnology Co., Ltd.) was used, and the operation was performed according to the instruction of the reagent. The combinations and the amount of the transfection vector(s) per 105 HEK293 cells were as follows:
combination 1: pcDNA3.1-GFP-NUPN, the transfection dosage of the vector was 1 μg; combination 2: pcDNA3.1-mCherry, the transfection dosage of the vector was 1 μg; combination 3: pcDNA3.1-GFP-NUPN+pcDNA3.1-mCherry, the transfection dosages of these two vectors were 0.5 μg and 0.5 μg, respectively; combination 4: pcDNA3.1-GFP-NUPN-P53, the transfection dosage of the vector was 1 μg; combination 5: pcDNA3.1-GFP-NUPN-P53+pcDNA3.1-mCherry, the transfection dosages of these two vectors were 0.5 μg and 0.5 μg, respectively; combination 6: pcDNA3.1-mCherry-MDM2, the transfection dosage of the vector was 1 μg; combination 7: pcDNA3.1-GFP-NUPN+pcDNA3.1-mCherry-MDM2, the transfection dosages of these two vectors were 0.5 μg and 0.5 μg, respectively; combination 8: pcDNA3.1-GFP-NUPN-P53+pcDNA3.1-mCherry-MDM2, the transfection dosages of these two vectors were 0.5 μg and 0.5 μg, respectively. […]

[2] = biological target: T1, interaction between P53 and MDM2; test: Phase transition droplet detection of the effect of a regulatory factor on the P53-MDM2 interaction (SGS-P53, mCherry-MDM2, His-SGP); assay type: binding; design: His-tag (N); made in house; host or cells: E. coli BL21 (DE3); details: MI-773 1.25-25 μM, ampicillin 25 μM; SGS-P53, mCherry-MDM2 and His-SGP all 0.5 μM; static incubation at 4° C.
Procedure: the solutions of SGS-P53, mCherry-MDM2, His-SGP and ampicillin were mixed, and then 20 μL of the resulting mixture was transferred to a 384-microwell plate to obtain an ampicillin control system and the concentrations of SGS-P53, mCherry-MDM2 and His-SGP were all 0.5 μM in the ampicillin control system, and the concentration of ampicillin was 25 μM;
According to the above system, the solutions of SGS-P53, mCherry-MDM2, His-SGP and MI-773 were mixed, and then 20 μL of the resulting mixture was transferred into a 384-microwell plate. Different concentrations of MI-773 were set to obtain experimental systems with different concentrations of MI-773. The concentration of MI-773 in each experimental system was 0 (i.e., KMEI buffer), 1.25, 2.5, 5, 10, 15, and 25 μM, respectively, one concentration per well, and in each experimental system, the concentrations of SGS-P53, mCherry-MDM2 and His-SGP were all 0.5 μM.
Each of the above systems was subjected to static incubation at 4° C. until the phase transition droplets in the systems in which phase transitions occurred completely settled to the bottom of the well plate, and the image of each system was collected using a confocal high-content imaging microscope and the intensity of the red fluorescence signal in the phase transition droplets in each well plate was counted and analyzed.

CD = biological target: T2, CD (Homo sapiens, UniProt P83916); test: Phase transition droplet detection of the interaction between H3K9me3 and CD (SGS-CD, His-SGP, Hfq-mCherry-PDZ); assay type: binding; details: systems 15-20 with Hfq-mCherry-PDZ; mixture completely composed of the named peptide; all components 1 μM
T2 construct: His-SGS (His-tag, SmF, GFP, SH3 and linking regions); made in house; host or cells: E. coli BL21 (DE3)
Procedure: The concentrations of His-SGS, SGS-CD, His-SGP, Hfq-mCherry-PDZ, mCherry-PDZ and the mixture of H3K9me3-KKETPV and H3K9-KKETPV in the corresponding systems were all 1 μM:
In Table 2, “+” represents that the substance is contained; “−” represents that the substance is not contained; “*” represents a mixture of H3K9me3-KKETPV and H3K9-KKETPV. In the systems 9-14, the molar percentages of H3K9me3-KKETPV in the mixture of H3K9me3-KKETPV and H3K9-KKETPV were 0, 0.2, 0.4, 0.6, 0.8 and 1.0, respectively, and in the systems 15-20, the molar percentages of H3K9me3-KKETPV in the mixture of H3K9me3-KKETPV and H3K9-KKETPV were 0, 0.2, 0.4, 0.6, 0.8 and 1.0, respectively.
Each of the above systems was subjected to a static incubation at 4° C. until the phase transition droplets in the systems in which phase transitions occurred completely settled to the bottom of the well plate, and the images were collected using a confocal high-content imaging microscope.

[3] = biological target: T3, interaction between FKBP and FRB (Homo sapiens, UniProt P42345+P62942); test: Phase transition droplet detection of the effect of a regulatory factor on the FKBP-FRB interaction (SGS-FKBP, mCherry-FRB, His-SGP); assay type: binding; details: rapamycin 0.2-1.0 μM, ampicillin control, mCherry-FRB and His-SGP all 1 μM, static incubation at 4° C.
T3 construct: His-SGS (His-tag, SmF, GFP, SH3 and linking regions); His-tag (N); made in house; host or cells: E. coli BL21 (DE3)
T3 sequence (P62942 with tags, fused parts or gaps): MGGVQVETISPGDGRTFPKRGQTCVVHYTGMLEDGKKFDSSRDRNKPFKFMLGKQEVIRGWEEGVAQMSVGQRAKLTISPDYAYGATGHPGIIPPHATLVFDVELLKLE
T3 sequence (P42345 with tags, fused parts or gaps): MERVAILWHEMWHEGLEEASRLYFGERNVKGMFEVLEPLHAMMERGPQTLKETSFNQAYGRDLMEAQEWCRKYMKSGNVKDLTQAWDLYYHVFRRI
Source text: Different concentrations of rapamycin were set to obtain experimental systems with different concentrations of rapamycin.

T1 sequence (Q00987 with tags, fused parts or gaps): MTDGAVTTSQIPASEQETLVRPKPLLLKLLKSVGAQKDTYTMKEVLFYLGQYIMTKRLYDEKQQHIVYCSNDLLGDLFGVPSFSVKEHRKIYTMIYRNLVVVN
T2 sequence (P83916 19-83): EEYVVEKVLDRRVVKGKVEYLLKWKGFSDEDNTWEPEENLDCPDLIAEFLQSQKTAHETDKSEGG

effect on the interaction between P53 and MDM2 in cells (accumulation of red fluorescent signal in the second phase) [1]	effect on the interaction between P53 and MDM2 (red fluorescence signal in the phase transition droplets) [2]	effect on the interaction between FRB and FKBP (red fluorescence signal in the phase transition droplets) [3]	Molecule	red fluorescence signal (mCherry) in the phase transition droplets (CD)
significantly inhibit	significantly inhibit		CC(C)(C)C[C@@H]1N[C@@H](C(=O)N[C@H]2CC[C@H](O)CC2)[C@H](c2cccc(Cl)c2F)[C@]12C(=O)Nc1cc(Cl)ccc12 [MI-773]	
does not affect			CN[C@@H](C)C(=O)N[C@H](C(=O)N1CCC[C@H]1C(=O)Nc1snnc1-c1ccccc1)C1CCCCC1 [GDC0152]	
			ARTK (Me) 3QTARGGSGGSGGSWGGSKKETPVAV (ARTK(Me3)QTARGGSGGSGGSWGGSKKETPVAV) [H3K9me3-KKETPV]	reached the highest
	does not affect	does not affect	CC1(C)S[C@@H]2[C@H](NC(=O)[C@H](N)c3ccccc3)C(=O)N2[C@H]1C(=O)O [ampicillin]	
			H3K9-KKETPV: unmethylated peptide as shown in SEQ ID NO: 23, used as a control (ARTKQTARGGSGGSGGSWGGSKKETPVAV)	no significant red fluorescence
